Legend:
[1] = target: Recombinant Human Siglec-3/CD33 protein (His-CD33) (Homo sapiens (Human), UniProt P20138); assay: Differential scanning fluorimetry (DSF) thermal shift assay; format: binding
Protocol: In the DSF assay, as the temperature increases, the protein gets gradually unfolded, exposing hydrophobic regions in which a fluorescent dye binds causing the fluorescence signal to increase. The midpoint of the unfolding transitions is called the thermal melt (Tm) or denaturation temperature and the Tm was defined as the peak apex in the derivative curve. Here, the Tm temperature of CD33 in the presence and absence of A-001 at a concentration of 50 μM was examined.
Recombinant Human Siglec-3/CD33 protein was purchased from Acros (catalog no. CD3-H5226) and reagents used in this study are shown in the Table 1 below.
Lyophilized CD33 protein was received in 1 mg aliquots from Acros. The protein was diluted with 2.5 mL of sterile water to a concentration of 400 μg/mL (14.5 μM), aliquoted into 138 μL aliquots and stored as at −20° C. On the day of analysis, the protein was thawed and […] solution was diluted to […] using buffer containing 133 mM NaCl, 133 mM phosphate buffered solution and 13.9× Sypro Orange dye in water in a quantity to cover the amount of samples tested on the day of the analysis.
200 μM stock solutions of A-001 containing 0.2% DMSO in water was supplied by compound management in a 384-well plate format.
Sample matrix were prepared by adding 7.5 μL of the protein buffer stock solution followed by addition of 2.5 μL of the 200 μM compound solutions in 384-well PCR plates to give a final volume of 10 μL per well consisting of 0.5 μM CD33 protein, 100 mM phosphate buffered solution pH 7.4, 100 mM NaCl, 10× SYPRO orange dye and 50 μM compound concentration (final DMSO concentration ˜0.2%). Using the Applied Biosystems® Protein Thermal Shift software (algorithm version 1.3.), the denaturation temperature or thermal melt (Tm) of the unbound and ligand bound CD33 protein was automatically assigned and the difference in thermal melt (ΔTm D) was calculated using the derivative curve by the Protein Thermal Shift software.
Recombinant human CD33 protein (0.5 μM) was incubated under buffered conditions in the presence of SYPRO orange dye, a temperature gradient was applied and a thermogram was produced by monitoring the fluorescence. The Tm was defined as the peak apex in the derivative curve in the study. […] Addition of […] of A-001 (Blue lines) to the CD33 protein induced significant Tm increases (ΔTm D) of 12.2±0.7° C.

[2] = target: Recombinant human CD33 protein (Homo sapiens (Human), UniProt P20138); assay: CD33 competitive binding assay for HTS drug screen (fluorescent multivalent sialic acid probe)
Protocol: This is a competitive binding assay that uses recombinant CD33 immobilized to a plate and a fluorescently-labeled multivalent sialic acid analog as a probe. Binding of drug to the site on CD33 to which sialic acid binds is detected by reduced binding of the fluorescent probe. Recombinant human CD33 protein (for example Acro Biosystems cat #CD3-H5257) was added at a concentration of 10 μg/ml in 20 mM acetate buffer (pH5.5) to a black plastic plate (Corning 4510) and allowed to incubate overnight at 4° C. The next day, the wells were washed 3 times with PBS containing 0.02% Tween-20. This was followed by a 30-minute incubation with PBS containing 0.2% Tween-20 and 0.5% BSA to block non-specific binding to the well. This buffer is removed and replaced with 10 μl of the same buffer, which is also used as the assay buffer. The fluorescent multivalent sialic acid probe was prepared as a 4× concentration as follows. A biotinylated sialic acid analog A-375 was mixed with biotin-4-Fluorescein isothiocyanate (biotin-4-FITC) at a 3:1 molar ratio with final concentrations (4× stock) of 60 μM A-375 and 20 μM biotin-4-FITC. After these were mixed, 20 μM of neutravidin was added, which should form complexes consisting of neutravidin, fluorescein and sialic acid with an average complex consisting of 1 neutravidin, 1 FITC and 3 sialic acid analogs. The multimerization of the sialic acid analog is critical to the assay and improves the affinity of the sialic acid analog several orders of magnitude. A test compound, for example A-001, is added at 5 μl to the 10 μl assay buffer already in the well. After a brief incubation, 5 μl of the 4× stock solution of sialic acid complexes was added. The final concentration of the complexes was therefore 5 μM neutravidin, 15 μM A-375 and 5 μM FITC. The plate was incubated at room temperature for 30 mins and then washed with PBS containing 0.2% Tween-20. Binding of the sialic acid complex is very stable, with an off-rate of several days. Bound complex was then detected using a standard plate reader to quantify FITC fluorescence.

[3] = thermal melt shift of 0.5 μM CD33 protein with 50 μM compound

Chain of Recombinant human CD33 protein (P20138 18-259): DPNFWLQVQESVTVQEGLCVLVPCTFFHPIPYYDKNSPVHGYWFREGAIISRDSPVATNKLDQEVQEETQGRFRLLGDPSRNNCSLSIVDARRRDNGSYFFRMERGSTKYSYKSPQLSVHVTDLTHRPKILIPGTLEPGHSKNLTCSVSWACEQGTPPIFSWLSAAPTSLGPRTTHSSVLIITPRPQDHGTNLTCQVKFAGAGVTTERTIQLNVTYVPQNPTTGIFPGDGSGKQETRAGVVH
Chain of Recombinant Human Siglec-3/CD33 protein (His-CD33) (P20138 18-259): as above

Row | SMILES | DSF (dTmD) [1, 3] | EC50 [2] | DSF (dTmD) ([1]; difference in thermal melt of CD33 protein (0.5 μM) with 50 μM compound)
1 | COC(=O)[C@@]1(CCN2CCOC[C@@]23CCN(C(=O)OC(C)(C)C)C3)C[C@H](O)[C@@H](NC(C)=O)[C@H]([C@H](O)[C@H](O)CNC(=O)c2cc(C)c(O)c(C)c2)O1 [A-002] | −0.3 | – | –
2 | CC(=O)N[C@H]1[C@H]([C@H](O)[C@H](O)CNC(=O)c2cc(C)c(O)c(C)c2)O[C@@](CCN2C[C@@H](C)OC[C@@]23CCN(C(=O)OC(C)(C)C)C3)(C(=O)O)C[C@@H]1O [A-004] | 9.1 | 98 nM | –
3 | CC(=O)N[C@H]1[C@H]([C@H](O)[C@H](O)CNC(=O)c2cc(C)c(O)c(C)c2)O[C@@](CCN2CCN(C)C[C@]23CCN(C(=O)OC(C)(C)C)C3)(C(=O)O)C[C@@H]1O [A-011] | 3.9 | 1630 nM | –
4 | CC(=O)N[C@H]1[C@H]([C@H](O)[C@H](O)CNC(=O)c2cc(C)c(O)c(C)c2)O[C@@](CCN2CCNC[C@]23CCN(C(=O)OC(C)(C)C)C3)(C(=O)O)C[C@@H]1O [A-013] | 11.4 | 35 nM | –
5 | CC(=O)N[C@H]1[C@H]([C@H](O)[C@H](O)CNC(=O)c2cc(C)c(O)c(C)c2)O[C@@](CCN2CCN(C(C)=O)C[C@]23CCN(C(=O)OC(C)(C)C)C3)(C(=O)O)C[C@@H]1O [A-015] | 3.8 | 3340 nM | –
6 | CC(=O)N[C@H]1[C@H]([C@H](O)[C@H](O)CNC(=O)c2cc(C)c(O)c(C)c2)O[C@@](CCN2CCCC23CN(C(=O)OC(C)(C)C)C3)(C(=O)O)C[C@@H]1O [A-017] | 1.2 | 1560 nM | –
7 | CC(=O)N[C@H]1[C@H]([C@H](O)[C@H](O)CNC(=O)c2cc(C)c(O)c(C)c2)O[C@@](CCN2CCOCC2c2cccnc2)(C(=O)O)C[C@@H]1O (stereo partly drawn) [A-024] | 1.1 | 7940 nM | –
8 | CC(=O)N[C@H]1[C@H]([C@H](O)[C@H](O)CNC(=O)c2cc(C)c(O)c(C)c2)O[C@@](CCN2C(C)CCC23CCN(C(=O)OC(C)(C)C)C3)(C(=O)O)C[C@@H]1O (stereo partly drawn) [A-025] | 10.0 | 115 nM | –
9 | CC(=O)N[C@H]1[C@H]([C@H](O)[C@H](O)CNC(=O)c2cc(C)c(O)c(C)c2)O[C@@](CCNC2(C)CCN(C(=O)OC(C)(C)C)C2)(C(=O)O)C[C@@H]1O (stereo partly drawn) [A-026] | 9.2 | 830 nM | –
10 | CC(=O)N[C@H]1[C@H]([C@H](O)[C@H](O)CNC(=O)c2cc(C)c(OCCN)c(C)c2)O[C@@](CCN2CCCC[C@@]23CCN(C(=O)OC(C)(C)C)C3)(C(=O)O)C[C@@H]1O [A-027] | 10.4 | 64 nM | –
11 | C=CC[C@@]1(NCC[C@]2(C(=O)O)C[C@H](O)[C@@H](NC(C)=O)[C@H]([C@H](O)[C@H](O)CNC(=O)c3cc(C)c(O)c(C)c3)O2)CCN(C(=O)OC(C)(C)C)C1 [A-032] | 8.4 | 181 nM | –
12 | C=CC[C@]1(NCC[C@]2(C(=O)O)C[C@H](O)[C@@H](NC(C)=O)[C@H]([C@H](O)[C@H](O)CNC(=O)c3cc(C)c(O)c(C)c3)O2)CCN(C(=O)OC(C)(C)C)C1 [A-033] | 6.1 | 1610 nM | –
13 | CC(=O)N[C@H]1[C@H]([C@H](O)[C@H](O)CNC(=O)c2cc(C)c(O)c(C)c2)O[C@@](CCN2CCOC[C@@]23CCN(c2cc(C4CC4)ccn2)C3)(C(=O)O)C[C@@H]1O [A-036] | 12.5 | 16 nM | –
14 | CC(=O)N[C@H]1[C@H]([C@H](O)[C@H](O)CNC(=O)c2cc(C)c(O)c(C)c2)O[C@@](CCN2CCOC[C@@]23CCN(c2ccccn2)C3)(C(=O)O)C[C@@H]1O [A-037] | 9.6 | 39 nM | –
15 | CC(=O)N[C@H]1[C@H]([C@H](O)[C@H](O)CNC(=O)c2cc(C)c(O)c(C)c2)O[C@@](CCN2CCOC[C@@]23CCN(c2cnccn2)C3)(C(=O)O)C[C@@H]1O [A-040] | 6.3 | 363 nM | –
16 | CC(=O)N[C@H]1[C@H]([C@H](O)[C@H](O)CNC(=O)c2cc(C)c(O)c(C)c2)O[C@@](CCN2CCOC[C@@]23CCN(C(=O)NC(C)(C)C)C3)(C(=O)O)C[C@@H]1O [A-042] | 13.3 | 12 nM | –
17 | CC(=O)NC1[C@H]([C@H](O)[C@H](O)CNC(=O)c2cc(C)c(O)c(C)c2)O[C@@](CC(=O)N2CCOC[C@]23CCN(C(=O)OC(C)(C)C)C3)(C(=O)O)C[C@@H]1O (stereo partly drawn) [A-222] | – | – | 9.3 °C

Continued by falling EC50 [2], values first:

Row | DSF (dTmD) [1, 3] | EC50 [2] | DSF (dTmD) ([1]; difference in thermal melt of CD33 protein (0.5 μM) with 50 μM compound) | SMILES
18 | 2.1 | 9730 nM | – | CC(=O)N[C@H]1[C@H]([C@H](O)[C@H](O)CNC(=O)c2cc(C)c(O)c(C)c2)O[C@@](CCN2CCCC[C@@]23CN(C(=O)OC(C)(C)C)C[C@H]3CO)(C(=O)O)C[C@@H]1O [A-029]
19 | 6.1 | 2000 nM | – | CC(=O)N[C@H]1[C@H]([C@H](O)[C@H](O)CNC(=O)c2cc(C)c(O)c(C)c2)O[C@@](CCN2CCOCC2(C)CNC(=O)OC(C)(C)C)(C(=O)O)C[C@@H]1O (stereo partly drawn) [A-009]
20 | 5.12 | 1140 nM | – | CC(=O)N[C@H]1[C@H]([C@H](O)[C@H](O)CNC(=O)c2cc(C)c(O)c(C)c2)O[C@@](CCN2CCOC[C@]23CCN(C(=O)OC(C)(C)C)C3)(C(=O)O)C[C@@H]1O [A-003]
21 | 6.7 | 880 nM | – | C=C[C@H]1CN(C(=O)OC(C)(C)C)C[C@@]1(C)NCC[C@]1(C(=O)O)C[C@H](O)[C@@H](NC(C)=O)[C@H]([C@H](O)[C@H](O)CNC(=O)c2cc(C)c(O)c(C)c2)O1 [A-034]
22 | 7.4 | 413 nM | – | C=C[C@@H]1CN(C(=O)OC(C)(C)C)C[C@]1(C)NCC[C@]1(C(=O)O)C[C@H](O)[C@@H](NC(C)=O)[C@H]([C@H](O)[C@H](O)CNC(=O)c2cc(C)c(O)c(C)c2)O1 [A-035]
23 | 8.1 | 159 nM | – | CC(=O)N[C@H]1[C@H]([C@H](O)[C@H](O)CNC(=O)c2cc(C)c(O)c(C)c2)O[C@@](CCN2CCCC[C@]23CN(C(=O)OC(C)(C)C)C[C@@H]3CO)(C(=O)O)C[C@@H]1O [A-028]
24 | 9.7 | 34 nM | – | CC(=O)N[C@H]1[C@H]([C@H](O)[C@H](O)CNC(=O)c2cc(C)c(O)c(C)c2)O[C@@](CCN2CC(=O)N(C)C[C@@]23CCN(C(=O)OC(C)(C)C)C3)(C(=O)O)C[C@@H]1O [A-016]
25 | 12.6 | 22 nM | – | CC(=O)N[C@H]1[C@H]([C@H](O)[C@H](O)CNC(=O)c2cc(C)c(O)c(C)c2)O[C@@](CCN2CCNC[C@@]23CCN(C(=O)OC(C)(C)C)C3)(C(=O)O)C[C@@H]1O [A-012]
26 | 12.3 | 19 nM | – | CC(=O)N[C@H]1[C@H]([C@H](O)[C@H](O)CNC(=O)c2cc(C)c(O)c(C)c2)O[C@@](CCN2CCN(C(C)=O)C[C@@]23CCN(C(=O)OC(C)(C)C)C3)(C(=O)O)C[C@@H]1O [A-014]
27 | 13.5 | 15 nM | – | CC(=O)N[C@H]1[C@H]([C@H](O)[C@H](O)CNC(=O)c2cc(C)c(O)c(C)c2)O[C@@](CCN2CCN(C)C[C@@]23CCN(C(=O)OC(C)(C)C)C3)(C(=O)O)C[C@@H]1O [A-010]
28 | 14.1 | 7 nM | – | CC(=O)N[C@H]1[C@H]([C@H](O)[C@H](O)CNC(=O)c2cc(C)c(O)c(C)c2)O[C@@](CCN2C[C@H](C)OC[C@@]23CCN(C(=O)OC(C)(C)C)C3)(C(=O)O)C[C@@H]1O [A-005]

Source: patent US20250313574A1, “SIALIC ACID DERIVATIVES AND METHODS OF USING SAME” (EISAI R&D MANAGEMENT CO., LTD., priority 2022, published 2025)
